Assay results: patent US20220183287A1, “METHODS FOR KILLING PESTS” (The United States of America, as represented by the …, priority 2020, published 2022)
Marks after values point to notes of the source that are not given here.

Columns and labels:
M. incognita = test: Greenhouse trial: root galls on cucumber in treated soil; format: in vivo, Meloidogyne incognita; conditions: for reduction of galls per gram of root compared with the Tween control: 0.1%, Trials 1 & 2
Excerpt: Two weeks after transplant, the plants were harvested.
The assumptions of the model were checked.
The number of carbons is indicated in parentheses.

[1] = system: cucumber (Cucumis sativus) plants; test: Greenhouse trial: cucumber plant vigor in treated soil; conditions: for Root weight Trials 1 & 2: 27-28 ml per 300 grams soil; for Shoot fresh weight Trial 1 / Shoot height Trial 1: 27 ml per 300 grams soil; for Shoot fresh weight Trial 2 / Shoot height Trial 2: 28 ml per 300 grams soil
Description: Greenhouse trials: Selected compounds and combinations were tested for effects on plant growth and on numbers of galls produced by M. incognita infecting cucumber (Cucumis sativus) plants in pots. Cucumber “Sweet Slice” seeds were planted in ProMix in 6-pack cell trays. Treatments were mixed into loamy sand at 27 ml (Trial 1) and 28 ml (Trial 2) per 300 grams soil. Meloidogyne incognita eggs were mixed into soil for a final inoculum of 5,000 per pot. Each pot received 300 grams soil per treatment, with 4 replicates per treatment in each of two trials. Pots were covered with black plastic and periodically watered to keep the soil moist. Two weeks later, one 14-day old cucumber seedling was transplanted into each pot. Two weeks after transplant, the plants were harvested. Root and shoot measurements were recorded and root galls were counted.
Statistical analyses: The data were analyzed as either a general linear model using JMP or a generalized linear model for the best distribution to fit the residual using Proc Glimmix (Sas Institute). The assumptions of the model were checked. If not met, then appropriate statistical techniques were used so that data could met the assumptions of the models. In Sas, mean comparisons were done with Sidak adjusted p-values to hold the experiment-wise error at 0.05. As indicated in the footnote to Table 5, an analysis from greenhouse trials was conducted with JMP using a Wilcoxon test with each pair nonparametric multiple comparisons (P≤0.05).
Table 5 legend: a) treatments were added at a rate of 27 ml (Trial 1) and 28 ml (Trial 2) per 300 grams soil. Four replicate pots, each containing 300 grams soil, were used per treatment in each trial. Meloidogyne incognita was mixed into soil for a final inoculum of 5,000 eggs per pot. Two weeks after soil treatment, one 14-day old cucumber seedling was transplanted into each pot. […] Untransformed data are presented to show actual numbers on roots; e) compounds differ from each other in number of carbons of aliphatic ester moiety. The number of carbons is indicated in parentheses.

[2] = system: H. glycines second-stage juveniles; test: Microwell assay: previously hatched J2 immersed in compounds, activity and viability; conditions: for viability reduction compared with the Tween control: following the water rinse (Day 3); for inactive J2: Day 1 and Day 2; for reduction in % viable J2 compared with the Tween control: Day 3 following water rinse
[3] = 0.1%, previously hatched J2 in aqueous solution
[4] = Heterodera glycines, 72 h, read-out: % Viable Day 3 rinsed

Row | SMILES | Galls per gram root Trials 1 & 2 (M. incognita; 0.05%, 5,000 eggs per pot) | Galls per gram root Trials 1 & 2 (M. incognita; 0.1%, 5,000 eggs per pot) | reduction of galls per gram of root compared with the Tween control (M. incognita) [%] | Root weight Trials 1 & 2 ([1]; 0.05%) | Shoot fresh weight Trial 1 ([1]; 0.05%) | Shoot height Trial 1 ([1]; 0.05%) | Shoot fresh weight Trial 2 ([1]; 0.05%) | Shoot height Trial 2 ([1]; 0.05%) | Root weight Trials 1 & 2 ([1]; 0.1%) | Shoot fresh weight Trial 1 ([1]; 0.1%) | Shoot height Trial 1 ([1]; 0.1%) | Shoot fresh weight Trial 2 ([1]; 0.1%) | Shoot height Trial 2 ([1]; 0.1%) | % Active Day 1 [2, 3] | % Active Day 2 [2, 3] | viability at 0.1 % [2, 4] [%] | inactive J2 ([2]; 0.1%) [%] | reduction in % viable J2 compared with the Tween control ([2]; 0.1%) [%] | further results
1 | CCOC(=O)c1ccccc1 [EB, Ethyl benzoate] | 22.6 ^bcd | 34.2 ^abc | 53 | 3.2 ^ab g | 2.8 ^a g | 7.1 ^ab cm | 4.7 ^a g | 7.5 ^a cm | 3.1 ^ab g | 3.0 ^a g | 6.4 ^b cm | 4.0 ^ab g | 8.1 ^a cm | 2.7 ^e % | 1.8 ^g % | 4.4 |  |  | % Active Day 1 ([2]; 0.025% final concentration): 73.9 ^a %; viability at 0.025 % [2, 4]: 52.8%
2 | COC(=O)c1cccc(C)c1 [M3MB, Methyl 3-methylbenzoate] | 11.2 ^bcdef | 6.8 ^defg |  | 3.3 ^a g | 3.3 ^a g | 6.8 ^ab cm | 4.3 ^ab g | 7.9 ^a cm |  | 3.2 ^a g | 6.9 ^ab cm | 3.6 ^ab g | 7.2 ^a cm | 10.1 ^d % | 7.6 ^g % | 8.5 |  |  | % Active Day 1 ([2]; 0.015% final concentration): 71.9 ^a %; viability at 0.015 % [2, 4]: 58.7%
3 | COC(=O)c1ccccc1 [MB, Methyl benzoate] | 16.6 ^bcde | 7.4 ^defg |  | 3.0 ^ab g | 3.2 ^a g | 7.7 ^ab cm | 3.9 ^ab g | 8.0 ^a cm | 2.9 ^ab g | 3.0 ^a g | 7.2 ^ab cm | 4.0 ^ab g | 8.3 ^a cm | 0 ^e % | 0 ^h % | 0 | 100 | 100 | % Active Day 1 ([2]; 0.0095% final concentration): 49.7 ^bc %; % Active Day 2 ([2]; 0.0095% final concentration): 27.9 ^bc %; viability reduction compared with the Tween control ([2]; 0.0095%): 32%; viability at 0.0095 % [2, 4]: 43.8%
4 | C=COC(=O)c1ccccc1 [VB, Vinyl benzoate] | 1.8 ^gh | 0.1 ^h | ~100 | 3.1 ^ab g | 3.2 ^a g | 6.7 ^ab cm | 4.3 ^ab g | 8.3 ^a cm |  | 3.0 ^a g | 7.2 ^ab cm | 3.1 ^b g | 6.8 ^a cm | 0 ^e % | 0 ^h % | 0 | 100 | 100 | % Active Day 1 ([2]; 0.008% final concentration): 42.8 ^bc %; % Active Day 2 ([2]; 0.008% final concentration): 34.7 ^b %; viability reduction compared with the Tween control ([2]; 0.008%): 30%; viability at 0.008 % [2, 4]: 45%
